Test results as given in ChEMBL document CHEMBL3431459, “Roche carnitine palmitoyltransferase modulator screening data (supplementary data associated with the publication CHEMBL2216752)”.
≈ marks a conversion by molar mass, not a printed value.

Experiments:
[1] = biological target: T1, Carnitine O-palmitoyltransferase 1, muscle isoform (Homo sapiens, UniProt Q92523); experiment: SUPPLEMENTARY: Inhibition of Carnitine palmitoyltransferase 1, muscle isoform; design: species or system Muscle tissue
T1 sequence (Q92523 whole entry): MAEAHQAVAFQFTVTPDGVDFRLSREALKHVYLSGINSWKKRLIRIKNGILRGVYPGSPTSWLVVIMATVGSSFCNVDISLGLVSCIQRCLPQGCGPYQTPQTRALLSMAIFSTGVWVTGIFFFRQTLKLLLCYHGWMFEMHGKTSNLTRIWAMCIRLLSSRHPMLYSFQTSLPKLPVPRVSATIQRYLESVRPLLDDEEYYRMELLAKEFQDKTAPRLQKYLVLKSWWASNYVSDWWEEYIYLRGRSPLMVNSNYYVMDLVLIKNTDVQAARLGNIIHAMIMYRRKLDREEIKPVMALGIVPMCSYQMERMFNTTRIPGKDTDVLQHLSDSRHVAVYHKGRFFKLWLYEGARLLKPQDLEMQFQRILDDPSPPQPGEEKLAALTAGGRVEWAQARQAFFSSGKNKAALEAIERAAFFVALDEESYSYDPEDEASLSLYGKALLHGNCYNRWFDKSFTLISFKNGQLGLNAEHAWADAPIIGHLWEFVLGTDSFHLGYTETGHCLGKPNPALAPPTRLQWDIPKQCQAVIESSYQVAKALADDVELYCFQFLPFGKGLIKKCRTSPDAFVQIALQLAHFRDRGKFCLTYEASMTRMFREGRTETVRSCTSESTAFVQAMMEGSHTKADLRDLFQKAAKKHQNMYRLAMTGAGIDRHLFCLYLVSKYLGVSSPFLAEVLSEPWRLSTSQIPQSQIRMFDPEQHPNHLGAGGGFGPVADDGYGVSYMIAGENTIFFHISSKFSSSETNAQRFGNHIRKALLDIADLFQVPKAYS

[2] = biological target: T2, Carnitine O-palmitoyltransferase 2, mitochondrial (Homo sapiens, UniProt P23786); experiment: (§1) SUPPLEMENTARY: Inhibition of Carnitine palmitoyltransferase 2
T2 sequence (P23786 whole entry): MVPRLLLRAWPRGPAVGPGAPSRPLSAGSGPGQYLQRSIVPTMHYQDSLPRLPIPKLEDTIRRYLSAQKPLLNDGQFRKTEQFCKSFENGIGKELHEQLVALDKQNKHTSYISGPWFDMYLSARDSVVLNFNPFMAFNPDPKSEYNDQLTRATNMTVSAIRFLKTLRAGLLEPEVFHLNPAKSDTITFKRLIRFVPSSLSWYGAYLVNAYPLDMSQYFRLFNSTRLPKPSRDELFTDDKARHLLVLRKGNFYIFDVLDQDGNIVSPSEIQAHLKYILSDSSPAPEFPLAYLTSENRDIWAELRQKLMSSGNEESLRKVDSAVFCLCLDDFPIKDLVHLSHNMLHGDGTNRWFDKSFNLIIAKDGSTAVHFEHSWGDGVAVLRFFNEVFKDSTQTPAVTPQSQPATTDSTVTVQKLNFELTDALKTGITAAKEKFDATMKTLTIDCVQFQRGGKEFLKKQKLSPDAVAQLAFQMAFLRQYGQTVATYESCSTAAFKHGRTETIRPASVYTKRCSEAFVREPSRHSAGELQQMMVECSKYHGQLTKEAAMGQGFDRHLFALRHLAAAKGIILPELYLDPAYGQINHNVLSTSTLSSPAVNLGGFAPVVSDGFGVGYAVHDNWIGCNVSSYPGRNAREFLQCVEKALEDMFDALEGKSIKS

[3] = biological target: T3, Carnitine O-palmitoyltransferase 2, mitochondrial (Rattus norvegicus, UniProt P18886); experiment: as §1
T3 sequence (P18886 whole entry): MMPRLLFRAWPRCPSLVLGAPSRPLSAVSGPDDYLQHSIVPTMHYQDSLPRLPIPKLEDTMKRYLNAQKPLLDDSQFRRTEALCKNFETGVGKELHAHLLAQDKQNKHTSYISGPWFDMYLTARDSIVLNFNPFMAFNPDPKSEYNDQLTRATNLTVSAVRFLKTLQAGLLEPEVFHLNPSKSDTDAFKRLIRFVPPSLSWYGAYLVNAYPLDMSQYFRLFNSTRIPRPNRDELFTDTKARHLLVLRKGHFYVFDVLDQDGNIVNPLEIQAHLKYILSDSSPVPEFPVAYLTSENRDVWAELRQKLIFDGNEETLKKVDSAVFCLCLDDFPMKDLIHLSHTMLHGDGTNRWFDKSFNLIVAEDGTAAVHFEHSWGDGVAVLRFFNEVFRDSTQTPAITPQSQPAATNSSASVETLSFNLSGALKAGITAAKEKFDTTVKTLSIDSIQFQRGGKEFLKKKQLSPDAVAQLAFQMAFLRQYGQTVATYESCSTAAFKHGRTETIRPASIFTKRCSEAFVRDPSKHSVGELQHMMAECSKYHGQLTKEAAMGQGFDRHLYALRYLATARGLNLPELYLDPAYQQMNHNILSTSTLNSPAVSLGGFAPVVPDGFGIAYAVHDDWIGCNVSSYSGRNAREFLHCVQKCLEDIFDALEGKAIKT

[4] = biological target: T4, Carnitine O-palmitoyltransferase 1, liver isoform (Homo sapiens, UniProt P50416); experiment: (§2) SUPPLEMENTARY: Inhibition of Carnitine palmitoyltransferase 1, liver isoform
T4 sequence (P50416 whole entry): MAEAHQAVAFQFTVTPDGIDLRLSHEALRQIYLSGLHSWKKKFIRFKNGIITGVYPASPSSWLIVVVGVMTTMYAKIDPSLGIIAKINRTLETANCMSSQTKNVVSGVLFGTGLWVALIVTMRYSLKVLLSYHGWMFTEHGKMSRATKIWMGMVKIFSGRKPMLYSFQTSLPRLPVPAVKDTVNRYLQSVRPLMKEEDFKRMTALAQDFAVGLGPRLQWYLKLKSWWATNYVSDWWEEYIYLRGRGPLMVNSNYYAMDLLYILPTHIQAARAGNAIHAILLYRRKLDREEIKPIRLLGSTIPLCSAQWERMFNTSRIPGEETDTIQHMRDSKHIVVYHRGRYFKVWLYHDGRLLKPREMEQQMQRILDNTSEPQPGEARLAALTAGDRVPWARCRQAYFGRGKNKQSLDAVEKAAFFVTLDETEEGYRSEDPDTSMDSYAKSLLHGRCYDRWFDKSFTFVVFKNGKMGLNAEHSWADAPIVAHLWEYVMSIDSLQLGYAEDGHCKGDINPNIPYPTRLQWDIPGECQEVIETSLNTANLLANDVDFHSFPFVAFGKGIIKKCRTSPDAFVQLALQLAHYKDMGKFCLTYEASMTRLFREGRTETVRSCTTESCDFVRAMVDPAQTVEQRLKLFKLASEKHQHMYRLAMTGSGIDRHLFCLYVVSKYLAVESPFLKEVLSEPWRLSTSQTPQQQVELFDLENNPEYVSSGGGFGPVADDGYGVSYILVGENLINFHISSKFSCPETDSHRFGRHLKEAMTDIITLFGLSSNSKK

[5] = biological target: T5, Carnitine O-palmitoyltransferase 1, liver isoform (Rattus norvegicus, UniProt P32198); experiment: as §2
T5 sequence (P32198 whole entry): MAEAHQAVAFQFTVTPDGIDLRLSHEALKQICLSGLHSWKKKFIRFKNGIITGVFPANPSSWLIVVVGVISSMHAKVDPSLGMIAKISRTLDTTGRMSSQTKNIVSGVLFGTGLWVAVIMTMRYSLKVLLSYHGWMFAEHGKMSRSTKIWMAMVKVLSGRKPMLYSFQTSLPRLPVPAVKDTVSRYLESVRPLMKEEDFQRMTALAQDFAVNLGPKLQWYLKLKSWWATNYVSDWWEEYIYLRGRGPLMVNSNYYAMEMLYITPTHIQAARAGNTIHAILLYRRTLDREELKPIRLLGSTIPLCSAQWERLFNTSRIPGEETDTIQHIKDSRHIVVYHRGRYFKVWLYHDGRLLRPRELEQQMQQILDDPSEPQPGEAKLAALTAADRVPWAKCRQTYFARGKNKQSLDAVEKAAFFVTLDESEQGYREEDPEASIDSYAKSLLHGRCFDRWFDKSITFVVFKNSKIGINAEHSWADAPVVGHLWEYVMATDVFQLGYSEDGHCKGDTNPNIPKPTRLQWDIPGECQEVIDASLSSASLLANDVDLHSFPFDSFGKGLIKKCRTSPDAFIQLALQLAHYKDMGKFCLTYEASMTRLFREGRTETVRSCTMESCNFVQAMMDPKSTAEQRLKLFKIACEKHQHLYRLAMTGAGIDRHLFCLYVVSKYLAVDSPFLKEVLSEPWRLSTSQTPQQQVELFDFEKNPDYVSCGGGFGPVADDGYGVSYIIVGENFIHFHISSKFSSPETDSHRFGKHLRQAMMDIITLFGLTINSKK

[6] = SUPPLEMENTARY: Lyophilisation Solubility Assay (LYSA); assay type: physicochemical; details: read-out: Kinetic_solubility
[7] = SUPPLEMENTARY: Lipophilicity (log D) Determination by high-throughput shake-flask; assay type: physicochemical; details: octanol/water
[8] = SUPPLEMENTARY: PAMPA permeability assay; assay type: physicochemical; details: read-out: Permeability

Row | Structure (SMILES) | IC50 [1] [nM] | IC50 [2] [nM] | IC50 [3] [nM] | IC50 [4] [nM] | IC50 [5] [nM] | solubility kinetic [6] [µg/mL] | logD [7] | Papp [8] [×10⁻⁶ cm/s]
1 | O=C(COc1ccccc1)N1CCCC[C@@H]1c1noc(-c2cnc3[nH]cnc3c2)n1 | 35500 | 24300 | 33600 | 90.2 | 238 | 109 (≈ 270 µM) | 2.36 | 3.53
2 | CS(=O)(=O)c1cccc(-c2nc([C@H]3CCCCN3C(=O)COc3ccccc3)no2)c1 | > 100000 | 22300 | > 100000 | 206 | 125 | 18 (≈ 40.8 µM) | 2.39 | 2.96
3 | COc1ccc(Cl)cc1CN1C(=O)CSc2ccc(C(=O)Nc3nc(CC(=O)O)cs3)cc21 | 1720 | > 100000 | > 100000 | 125 | 75.9 | 31 (≈ 61.5 µM) | 0.72 | 1.53
4 | COc1ccc(Cl)cc1S(=O)(=O)n1ccc2ccc(C(=O)Nc3ccc(CC(=O)O)cc3)cc21 | 2210 | > 100000 | > 100000 | 206 | 82.8 | 61 (≈ 122 µM) | 1.1 | 1.98
5 | CCCN(c1cc(C(=O)Nc2ncc(CC(=O)O)s2)cc2c1OCO2)S(=O)(=O)c1cc(Cl)ccc1OC | 703 | > 100000 | > 100000 | 181 | 61.9 | 108 (≈ 190 µM) | 2.74 | 3.56
6 | O=C(COc1ccccc1)N1CCCC[C@@H]1c1nc(-c2ccccc2F)n[nH]1 | > 100000 | 81400 | > 100000 | 106 | 187 | 61.5 (≈ 162 µM) | 3.06 | 4.79
7 | CCOC(=O)c1cn2ccc(-c3noc([C@H]4CCCCN4C(=O)COc4ccccc4)n3)cc2n1 | > 100000 | > 100000 | > 100000 | 68.1 | 459 | 22 (≈ 46.3 µM) | 2.92 | 1.99
